2 compounds from patent publication US20250064699A1, “CHLORHEXIDINE GLUCONATE-ISOPROPYL ALCOHOL WET WIPE PRODUCT AND PREPARATION METHOD THEREOF” (Dukal, LLC, priority 2021, published 2025) can be followed below.

A short description of this series: Stability testing: contents of chlorhexidine gluconate (liquid chromatography) and isopropyl alcohol (gas chromatography) in the wet wipe, long-term experiment. In kind it is physicochemical. Here is the method:
The test was performed by chromatography. The content of chlorhexidine gluconate in the 2% chlorhexidine gluconate-isopropyl alcohol solution and the wet wipe was quantitatively detected by liquid chromatography. The content of isopropyl alcohol in the wet wipe was quantitatively detected by gas chromatography. In this test, the contents of chlorhexidine gluconate and isopropyl alcohol were used as evaluation indexes. The contents of chlorhexidine gluconate and isopropyl alcohol were measured by a long-term experiment. Relative standard deviation (RSD) was used to determine the stability of the contents of chlorhexidine gluconate and isopropyl alcohol in the chlorhexidine gluconate-isopropyl alcohol wet wipe. The contents were respectively measured at Month 0, Month 1, Month 3, Month 6, Month 9, Month 12, Month 18 and Month 24. Based on the content at Month 0 (100%), the ratio of the content at the subsequent time points to the content at Month 0 was calculated respectively, as shown in Table 1.

In the case of `N=C(NCCCCCCNC(=N)NC(=N)Nc1ccc(Cl)cc1)NC(=N)Nc1ccc(Cl)cc1.O=C(O)[C@H](O)[C@@H](O)[C@H](O)[C@H](O)CO.O=C(O)[C@H](O)[C@@H](O)[C@H](O)[C@H](O)CO` [Chlorhexidine gluconate], the “ratio of the content to the content at Month 0” value (“ratio of the content” below) (Month 0 (set as 100%)) worked out at 100%; the “ratio of the content” value (Month 3) came to 100%; the “ratio of the content” value (Month 6) came out at 100%; the “ratio of the content” value (Month 9) is listed as 100%; the “ratio of the content” value (Month 12) amounted to 100%; the “ratio of the content” value (Month 18) amounted to 100%. Also, the “ratio of the content” value (Month 24) is on record as 106.2%^.

Regarding `CC(C)O` [Isopropyl alcohol], the “ratio of the content” value is, setting by setting: (Month 0 (set as 100%)) 100%; (Month 3) 97.5%; (Month 6) 100.8%; (Month 9) 100%; (Month 12) 99.2%; (Month 18) 100.8%. Also, for the setting “Month 24”, the “ratio of the content” value is 102.5%.
